Measured values taken from patent EP0791071B1, “ASSAY FOR PROLINE IMINOPEPTIDASE AND OTHER HYDROLYTIC ACTIVITIES” (LITMUS CONCEPTS, INC., priority 1994, dated 1996).
Where two headings read alike, the source gives them in different places. Non-standard residues stand in square brackets, D forms with d. Residues, ends and D or L forms follow the SMILES beside them. *: point of attachment. Sta = CC(C)C[C@H](N)[C@@H](O)CC(=O)O; AMC = Cc1cc(=O)oc2cc(N*)ccc12; Isovaleryl = CC(C)CC(=O)*; Boc = CC(C)(C)OC(=O)*

Experiments:
[1] = test system: Mobiluncus curtisii ATCC strain 35241 hydrolysis of L-prolyl-beta-naphthylamide (proline iminopeptidase activity); experiment: Enzyme inhibitors on hydrolysis of L-prolyl-beta-naphthylamide, PDMAC chromogen (Experiment VIII); assay type: biochemical; details: PRO.NAM conjugate, 1.5 hours at room temperature, water control 2
Protocol: 150 µL cell suspension, 10 µL conjugate, (PRO.NAM), 10 µL inhibitor, and 30 µL buffer were added to test tubes, and the suspension incubated for 1.5 hours at room temperature. 80 µL of the suspension was removed from the incubation tubes and added to 80 µL of the chromogen solution in a second set of tubes and the color formation noted.

[2] = test system: Mobiluncus curtisii ATCC strain 35241 cell hydrolysis of t-boc-L-val.L-leu.L-lys.7-amino-4-methyl coumarin; experiment: Enzyme inhibitors on cell hydrolysis of t-boc.VAL.LEU.LYS.7-AMC, PDMAC chromogen (Experiment X); assay type: biochemical; set-up: key to TEST COLOR: -: no red color formation; +/-: possible red color formation; +: clearly visible red color formation; ++: extremely intense red color formation; details: for TEST COLOR: t-boc.VAL.LEU.LYS.7-AMC as the conjugate, 1.5 hours at room temperature, no inhibitor 2
Protocol: (§1) 50 µL cell suspension, 5 µL conjugate, 10 µL inhibitor, and 35 µL buffer were added to test tubes, and the suspension incubated for 1.5 hours at room temperature. 90 µL of the incubated suspension was added to 90 µL of the chromogen solution and the color formation noted.

[3] = test system: Mobiluncus curtisii ATCC strain 35241 cell hydrolysis of Z-L-arg.L-arg.AFC; experiment: Enzyme inhibitors on cell hydrolysis of Z-ARG.ARG.AFC, PDMAC chromogen (Experiment X); assay type: biochemical; set-up: key: 0: no red color formation; 0.25: faintest red color detectable visually; 0.5: distinct red color; red color between 1.0 and 2.0 in intensity; 2.0: darkest red color possible in test system; details: Z-ARG.ARG.AFC as the conjugate, 1.5 hours at room temperature, water control 2
Protocol: as §1

[4] = test system: Mobiluncus curtisii ATCC strain 35241 cell hydrolysis of the conjugate, L-prolyl-beta-naphthylamide; assay type: biochemical; set-up: key: -: no red color formation; +/-: possible red color formation; +: clearly visible red color formation; ++: extremely intense red color formation; details: PRO.NAM conjugate, 2 minutes incubation, read after 3 minutes, water control 2
Protocol: 30 µL cell suspension, 10 µL conjugate, PRO.NAM, and 10 µL salt solution or water were added to test tubes, and the suspension incubated for 2 minutes at room temperature. 20 µL of the suspension was removed from the incubation tubes and added to Fast Garnet GBC chromogenic indicator laminae. After 3 minutes, the Fast Garnet GBC indicator laminae were examined for a red color.

[5] = test system: Mobiluncus curtisii ATCC strain 35241 hydrolysis of the conjugate, L-arginyl-beta-naphthylamide (ARG.NAM); assay type: biochemical; details: pH 8.0 Tris, 1 hour at room temperature, water control 2
Protocol: (§2) 20 µL cell suspension, 50 µL water, 10 µL salt solution, 10 µL buffer, and 5 µL conjugate, ARG.NAM, were added to test tubes, and the suspension incubated for 1 hour at room temperature. 100 µL of the PDMAC chromogen reagent was added, and red color formation after 5 minutes was noted.

[6] = test system: proline iminopeptidase activity in Mobiluncus curtsii ATCC strain 35241 cells; experiment: Diazonium dye indicator laminae in test devices with PRO.NAM lamina: color with Mobiluncus curtisii suspension (Experiment III); assay type: biochemical, Mobiluncus curtisii ATCC strain 35241; details: dye indicator lamina and PRO.NAM lamina in test device; about 40 microliters cell suspension; 10 minutes at room temperature
Protocol: Chromogenic indicator laminae of Fast Garnet GBC, 15 mg; Fast Black K, 57 mg; Fast Dark Blue, Fast Bordeaux, Fast Violet, and Fast Red B, 21 mg prepared as described in P[…] and proline iminopeptidase-hydrolyzable conjugate, L-prolyl-beta-naphthylamide, (13 mg/ml) prepared as described in P[…] were manually assembled into test devices (P[…]). • 1. Tests of device performance with the reporter group, beta-naphthylamine. Approximately 40 microliters of 500 micromolar beta-naphthylamine solution was added to the manually assembled kits. After 10 minutes, color formation was noted. • 2. Test kit performance with proline iminopeptidase activity in Mobiluncus curtsii ATCC strain 35241 cells.
Approximately 40 microliters of the Mobiluncus curtisii ATCC strain 35241 suspension were added to each test kit. After 10 minutes at room temperature, the appearance of color was determined.

[7] = test system: Mobiluncus curtisii ATCC strain 35241 hydrolysis of the conjugate, L-prolyl-beta-naphthylamide; assay type: biochemical; set-up: key: 0: no red color formation; 0.25: faintest red color detectable visually; 0.5: distinct red color; red color between 1.0 and 2.0 in intensity; 2.0: darkest red color possible in test system; details: 10 µL of 100 mM metal salt, PRO.NAM conjugate
Protocol: (§3) 20 µL cell suspension, 40 µL water, 10 µL salt solution, and 10 µL conjugate solutions (PRO.NAM or ARG.NAM) were added to test tubes, and mixed thoroughly. Immediately thereafter, 20 µL aliquots were removed from each tube, and added directly to Fast Garnet GBC chromogenic indicator laminae. After 5 minutes at room temperature, the Fast Garnet GBC sheets were examined for the formation of a red color.

[8] = test system: Mobiluncus curtisii ATCC strain 35241 hydrolysis of the conjugate, L-arginyl-beta-naphthylamide; experiment: Manganese and zinc chlorides on hydrolysis of ARG.NAM at high and low pH, Fast Garnet GBC laminae (Experiment XIII); assay type: biochemical; details: 10 µL of 100 mM metal salt
Protocol: as §3

[9] = test system: Mobiluncus curtisii ATCC Strain 35241; experiment: Hydrolysis of conjugates by microbial cells, PDMAC chromogen in solution (Experiment IV); assay type: biochemical; details: preparation and pH not given
Protocol: 50 µL distilled water, 25 µL buffer, and 25 µL microbial suspension were mixed. 5 µL conjugate was added, and the mixture allowed to incubate for 10 minutes at room temperature. 100 µL PDMAC was added to each incubation, and the color score noted.

[10] = test system: Mobiluncus curtisii ATCC strain 35241 proline iminopeptidase activity; experiment: Inhibition of proline iminopeptidase activity by detergents, PRO.NAM conjugate, PDMAC chromogen (Experiment VII); assay type: biochemical
Protocol: To one set of four test tubes were added 20 µL cell suspension, 5 µL conjugate, and 65 µL distilled water. After 10 minutes incubation at room temperature, 10 µL detergent and 90 µL chromogen solution was added and the color formation noted. To a second set of four test tubes were added 20 µL cell suspension, 5 µL conjugate, and 65 µL detergent solution. After 10 minutes incubation of these components at room temperature, 10 µL water and 90 µL chromogen solution was added and the color formation noted.

[11] = test system: Mobiluncus curtisii ATCC strain 35241 hydrolysis of the conjugate, L-arginyl-beta-naphthylamide (ARG.NAM); assay type: biochemical; set-up: key: -: no red color formation; +/-: possible red color formation; +: clearly visible red color formation; ++: extremely intense red color formation; details: metal salt 5 mM, pH 8.0 Tris, 1 hour at room temperature, water control 2
Protocol: as §2

[12] = test system: Mobiluncus curtisii ATCC strain 35241 hydrolysis of the conjugate, L-arginyl-beta-naphthylamide (ARG.NAM); assay type: biochemical; set-up: key: 0: no red color formation; 0.25: faintest red color detectable visually; 0.5: distinct red color; red color between 1.0 and 2.0 in intensity; 2.0: darkest red color possible in test system; details: metal salt 5 mM, pH 8.0 Tris, 1 hour at room temperature, water control 2
Protocol: as §2

O[C@H](CS)[C@H](O)CS (racemic) [DTT, dithiothreitol]
TEST COLOR ([1]; inhibitor 1 mM): 2 | TEST COLOR ([2]; CONCENTRATION (Mm) 1): 2 | TEST COLOR ([3]; CONCENTRATION (Mm) 1): 2

[Ca+2].[Cl-].[Cl-] [CaCl2]
TEST COLOR ([4]; metal salt 20 mM): 2 | TEST COLOR ([5]; metal salt 5 mM): 2

O=C(O)CN(CCOCCOCCN(CC(=O)O)CC(=O)O)CC(=O)O [EGTA, ethyleneglycol-bis-(beta-aminoethyl ether)-N,N,N',N'-tetraacetic acid]
TEST COLOR ([1]; inhibitor 5 mM): 2 | TEST COLOR ([2]; CONCENTRATION (Mm) 5): 2 | TEST COLOR ([3]; CONCENTRATION (Mm) 5): 2

Cc1ccccc1N=Nc1ccc([N+]#N)c(C)c1 [Fast Garnet GBC]
color formation with Mobiluncus Curtisii [6]: red

[Cl][Mn][Cl] [MnCl2, manganese chloride]
TEST COLOR ([4]; metal salt 20 mM): 2 | TEST COLOR ([5]; metal salt 5 mM): 1 | COLOR SCORE 5 MINUTES ([7]; pH 5, without salt 1): 1 | COLOR SCORE 5 MINUTES ([7]; pH 8, without salt 0.5): 0.5 | COLOR SCORE 5 MINUTES ([8]; pH 5, without salt 0): 0 | COLOR SCORE 5 MINUTES ([8]; pH 8, without salt 0.5): 0

CCN1C(=O)C=CC1=O [NEM, N-ethylmaleimide]
TEST COLOR ([1]; inhibitor 0.5 mM): 2 | TEST COLOR ([2]; CONCENTRATION (Mm) 2): 2 | TEST COLOR ([3]; CONCENTRATION (Mm) 2): 2

O=C(O)c1cc[c]([Hg][Cl])cc1 [PCMB, para-chloromercuribenzoate]
TEST COLOR ([1]; inhibitor 0.5 mM): 2

O=S(=O)(F)Cc1ccccc1 [PMSF, phenyl methyl sulfonyl fluoride]
TEST COLOR ([1]; inhibitor 2 mM): 2 | TEST COLOR ([2]; CONCENTRATION (Mm) 0.5): 1 | inhibited activity ([2]; hydrolysis of T-boc-VAL.LEU.LYS.AMC): approximately 50% | TEST COLOR ([3]; CONCENTRATION (Mm) 0.5): 2

Cc1cc(=O)oc2cc(NC(=O)[C@H](CCCCN)NC(=O)[C@H](CC(C)C)NC(=O)[C@@H](NC(=O)OC(C)(C)C)C(C)C)ccc12 [T-boc.VAL. LEU.LYS.AMC, Tert-butyloxycarbonyl-L-valyl-L-leucyl.L-lysyl-7-amino-4-methyl coumarin] (Boc-Val-Leu-Lys-{AMC})
M. CURTISII PDMAC COLOR (PREP., pH) [9]: 2

Cc1ccc(S(=O)(=O)N[C@@H](CCCCN)C(=O)CCl)cc1 [TLCK, N-tosyl-L-lysine-chloromethyl ketone]
TEST COLOR ([2]; CONCENTRATION (Mm) 0.5): 0 | TEST COLOR ([3]; CONCENTRATION (Mm) 0.5): 0.5

Cc1ccc(S(=O)(=O)N[C@@H](Cc2ccccc2)C(=O)CCl)cc1 [TPCK, N-tosyl-L-phenylalanine chloromethyl ketone]
TEST COLOR ([1]; inhibitor 0.5 mM): 2 | TEST COLOR ([2]; CONCENTRATION (Mm) 0.5): 0 | TEST COLOR ([3]; CONCENTRATION (Mm) 0.5): 0.5

CC(C)CC(=O)N[C@H](C(=O)N[C@H](C(=O)N[C@@H](CC(C)C)[C@@H](O)CC(=O)N[C@@H](C)C(=O)N[C@@H](CC(C)C)[C@@H](O)CC(=O)O)C(C)C)C(C)C [pepstatin] (Isovaleryl-VV[Sta]A[Sta]-OH)
TEST COLOR ([1]; inhibitor 0.5 mM): 2 | TEST COLOR ([2]; CONCENTRATION (Mm) 0.5): 2 | TEST COLOR ([3]; CONCENTRATION (Mm) 0.5): 2

CCCCCCCCCCCCCCCCCCOS(=O)(=O)[O-].[Na+] [sodium octadecyl sulfate]
COLOR ([10]; detergent (10 µL) added after the 10 minute incubation, with the chromogen): red | COLOR ([10]; detergent among first additions, present with cells and PRO.NAM during the 10 minute incubation, red = hydrolysis, yellow = none): yellow

CrCl2
TEST COLOR ([4]; metal salt 20 mM): 2

MgCl2
TEST COLOR ([4]; metal salt 20 mM): 2

cupric chloride [CuCl2]
TEST COLOR ([4]; metal salt 5 mM): 0 | TEST COLOR [11]: 0 | TEST COLOR ([5]; metal salt 1 mM): 1

mercuric chloride [HgCl2]
TEST COLOR ([4]; metal salt 1 mM): 0

zinc chloride [ZnCl2]
TEST COLOR ([4]; metal salt 20 mM): 2 | TEST COLOR ([5]; metal salt 1 mM): 1 | TEST COLOR [12]: 0.5 | COLOR SCORE 5 MINUTES ([7]; pH 5, without salt 1): 1 | COLOR SCORE 5 MINUTES ([7]; pH 8, without salt 0.5): 0.5 | COLOR SCORE 5 MINUTES ([8]; pH 5, without salt 0): 0 | COLOR SCORE 5 MINUTES ([8]; pH 8, without salt 0.5): 0
